{
  "source": "patent US6420352B1",
  "about": "“Hair loss prevention” (priority 2000, dated 2002)",
  "key": {"[1]": {"settings": "cited from earlier work"}, "hair loss": {"tested_on": "hair loss", "assay": "Topical use for hair loss prevention, effectiveness in patients", "format": "in vivo, human", "settings": "same amount of minoxidil", "from_the_text": "[…]. […] […]. After about thirty months of use, about half of the new hair growth falls out. Thus, while the user has somewhat more hair than originally, the user has less hair than […].\nMinoxidil without a penetration enhancer (as available in ROGAINE™ topical minoxidil U.S.P.) produces a different kind of hair than does minoxidil used with a penetration enhancer.\nFurther, it is known in the art that minoxidil users experience a sudden drop in hair thickness after about thirty months of usage. I thus have sought the time at which my compounds have a sudden drop in effectiveness. […] That this function is abnormal is confirmed by its drop in effectiveness after thirty months; such a drop in efficacy indicates a “tolerance” acquired against the intervention, rather than the maintenance of a permanent, healthy state.\nUsing the specific formulations disclosed here, I have observed decreases in hair loss, and a consequent statistically significant increase in the amount of healthy mature hair, after 4.0-4.5 months on the frontal scalp. On the crown and back of the head, by contrast, I have observed statistically significant results after 4.5-5.0 months. The frontal scalp may react faster because it enjoys greater vascularization and blood flow than the other parts of the scalp.\nI have found several surprising things about testosterone blockers. […]"}, "age related hair loss": {"tested_on": "age related hair loss", "settings": "stump-tail macaque monkeys; cited from earlier work"}, "scalp hair follicles": {"tested_on": "scalp hair follicles", "settings": "in vivo; cited from earlier work"}},
  "note": "Like-named read-outs stand apart in the source and are kept apart here.",
  "data": [
    {"compound": "CC(=O)[C@H]1CC[C@H]2[C@@H]3CCC4=CC(=O)CC[C@]4(C)[C@H]3CC[C@]12C", "note": "[Progesterone, pregn-4-ene-3, 20-dione]", "values": [
      {"measurement": "solubility, in words", "setting": "[1]; in alcohol, acetone, dioxane, and concentrated sulfuric acid", "result": "soluble"},
      {"measurement": "solubility, in words", "setting": "[1]; in vegetable oils", "result": "sparingly soluble"},
      {"measurement": "solubility, in words", "setting": "[1]; in water", "result": "insoluble"}
    ]},
    {"compound": "Nc1cc(N2CCCCC2)nc(N)[n+]1[O-]", "note": "[minoxidil, 6-(1-piperidinyl)-2,4-pyrimidinediamaine 3-oxide]", "values": [
      {"measurement": "share of patients on whom the preparation is effective", "setting": "hair loss", "result": 8, "unit": "%"}
    ]},
    {"compound": "CN(C)C(=O)C1CCC2C3CCC4N(C)C(=O)CCC4(C)C3CCC12C", "note": "(stereo not drawn) [17b-N,N,- dimethylcarbamoyl-4-methyl-4-aza-5α-androstan-3-one]", "values": [
      {"measurement": "age related hair loss versus untreated monkeys", "setting": "age related hair loss", "result": "significantly less age related hair loss"}
    ]},
    {"compound": "CCC(CCCCC1CCC2CC(=O)CC12)OC", "note": "(stereo not shown) [Cioteronel, hexahydro-4-(5-methoxyheptyl)-2(1H)-pentalenone]", "values": [
      {"measurement": "solubility, in words", "setting": "[1]; in lipid and relatively non-polar solvents", "result": "soluble"}
    ]},
    {"compound": "CC(C)(C)NC(=O)[C@H]1CC[C@H]2[C@@H]3CC[C@H]4NC(=O)C=C[C@]4(C)[C@H]3CC[C@]12C", "note": "[finasteride]", "values": [
      {"measurement": "effect on scalp hair follicles / balding process", "setting": "scalp hair follicles", "result": "miniaturizes scalp hair follicles, reversing the balding process"}
    ]}
  ]
}
